Data set [1] relates to A549 (human lung adenocarcinoma epithelial cell line, ATCC CCL-185). Description: Cytotoxicity on lung cells (resazurin), A549. As to conditions: 24 h incubation. It is filed as cell-based. In general terms: Resazurin is reduced to fluorescent resorufin, in cell work by metabolically active cells.
A further data set can be described thus: in vitro. As to conditions: human.
In data set [2] the test system is Mycobacterium tuberculosis H37Rv (ATCC 27294). Description: Antitubercular REMA (Resazurin Microtiter Assay). It is filed as cell-based. Conditions: Mycobacterium tuberculosis, 168 h, read-out: Mt MIC.
Data set [3] deals with Streptococcus sanguinis (ATCC 10557). Put plainly: Antibacterial broth microdilution (MIC/MBC), S. sanguinis. As to conditions: for MIC: ATCC10557, 24 h; for MBC: ATCC10557, read-out: Ss MBC.
Data set [4] concerns Streptococcus mutans (ATCC 25175). Description: Antibacterial broth microdilution (MIC/MBC), S. mutans. Conditions: for MIC: ATCC25175, 24 h; for MBC: ATCC25175, read-out: Sm MBC.
Data set [5] concerns MRC-5 (human lung fibroblast cell line, ATCC CCL-171). Description: Cytotoxicity on lung cells (resazurin), MRC-5. Conditions: Homo sapiens, MRC5, read-out: IC50 on pulmonary cells.
The subject of data set [6] is Staphylococcus aureus (ATCC 14458). Put plainly: Antibacterial broth microdilution (MIC/MBC), S. aureus. As to conditions: for MIC: ATCC14458, 24 h. Background: In broth dilution the organism is exposed to a series of concentrations in liquid medium.
Data set [7] concerns Pseudomonas aeruginosa (ATCC 15442). Description: Antibacterial broth microdilution (MIC), P. aeruginosa. Conditions: for MIC: ATCC15442, 24 h, read-out: Pa MIC.
Data set [8] can be described thus: DPPH radical scavenging ability. Conditions: at 1600, 800, 400, and 200 µM; DPPH 100 μM, 30 min, 25 °C. From the text:
The low selectivity of the cinnamylideneacetophenones 3 and 4 can be correlated with their phenolic nature. Studies report the ability of phenolic compounds to act on widespread radical processes shared by eukaryotic and prokaryotic cells. We hypothesized this behavior may be responsible by simultaneous activity toward bacteria and pulmonary cells. Therefore, we evaluated the radical scavenging ability of 3 and 4 using DPPH (2,2-diphenyl-1-picrylhydrazyl) protocol. […] Altogether, low selectivity of 3 and 4 cannot be strongly related to radical processes. Quercetin and gallic acid were used as positive controls due to their phenolic nature and potent radical scavenging ability.
Radical scavenging activity of compounds 3 and 4 was determined using 2,2-diphenyl-1-picrylhydrazyl (DPPH). Aliquots of 10 µL of 3, 4, and positive controls (quercetin and gallic acid) at concentrations 1600, 800, 400, and 200 μM (in EtOH) were individually added in 190 µL DPPH (100 μM). The mixtures were incubated in the dark at 25 °C for 30 min. Remaining DPPH was determined spectroscopically at 490 nm by blanking against absolute ethanol. Radical scavenging ability was expressed by using mean values obtained from triplicates as the percentage of radicals reduced by calculating the following equation: DPPH scavenging % = [1 − (Asample/A) × 100], where A is test absorbance without sample (only EtOH and DPPH) and Asample is test absorbance with compounds.

In data set [9] the test system is Escherichia coli (ATCC 10536). Put plainly: Antibacterial broth microdilution (MIC), E. coli. Conditions: for MIC: ATCC10536, 24 h, read-out: Ec MIC.
Data set [10] can be described thus: Partition coefficient log Po/w by HPLC-PDA (OECD method). Conditions: n-octanol/water (from HPLC retention on a C-18 column).
Data set [11] in a line: Cytotoxicity on lung cells (resazurin), MRC-5. As to conditions: human, MRC-5 cells (lung fibroblast cell line, ATCC CCL-171).
Another data set deals with S. aureus strains. On the set-up: method as in PMID 28066373. As to conditions: cited from earlier work.
The next data set concerns E. coli. On the set-up: method as in PMID 17662960. As to conditions: cited from earlier work.
A further data set deals with M. tuberculosis. On the set-up: method as in PMID 26400221. As to conditions: cited from earlier work.
Where [12] appears, read: ATCC14458, read-out: MIC and MBC values.
Setting [13] is: broth microdilution, 24 h, tested 3.9 to 500 µM.

pIC50: −log10 of the molar value. ≈ marks a conversion by molar mass, not a printed value. Where two headings read alike, the source gives them in different places.

By pIC50 is commonly meant −log10 of the IC50, conventionally taken in molar units. In general, MIC refers to the least concentration at which growth counts as inhibited. The term MBC denotes the lowest tested concentration that kills the bacteria rather than only halting them. One may read the chromatographic logP as lipophilicity estimated from chromatographic retention. Lower therefore signals a more hydrophilic compound. Regarding `O=C(/C=C/C=C/c1ccccc1)c1ccc(O)cc1` [Compound 4, (2E,4E)-1-(4-hydroxyphenyl)-5-phenylpenta-2,4-dien-1-one], the pIC50 is 4.11 in data set [1], 4.27 in the data set “in vitro” and 4.01 to 4.33 in [5]. The MIC in [2] was 81.9 µM (≈ 20.5 µg/mL); in [3] (read-out: Ss MIC), 156 µM (≈ 39 µg/mL); in data set [4] (read-out: Sm MIC), 156 µM (≈ 39 µg/mL); in data set [6] (read-out: Sa MIC), 77.9 µM (≈ 19.5 µg/mL); in data set [7] it was > 500 µM; in data set [9] it was > 500 µM. Also, the MBC is 312 µM (≈ 78.1 µg/mL) in data set [3]; 312 µM (≈ 78.1 µg/mL) in data set [4]; 77.9 to 312 µM (≈ 19.5 to 78.1 µg/mL) in [6] (setting [12]); 77.9 µM (≈ 19.5 µg/mL) in data set [6] (ATCC14458, read-out: Sa MBC). The chromatographic logP in “physchem” worked out at 2.6. Further, the “percentages of DPPH scavenging ability” value in data set [8] is listed as “below 8%”.

On to `O=C(/C=C/C=C/c1ccccc1)c1ccc(Cl)cc1` [Compound 11, (2E,4E)-1-(4-chlorophenyl)-5-phenylpenta-2,4-dien-1-one], for which the minimal inhibitory concentration (MIC) in data set [2] was > 200 µM; in [3] (read-out: Ss MIC), > 500 µM; in data set [4] (read-out: Sm MIC) it was > 500 µM; in data set [6] (read-out: Sa MIC), > 500 µM; in data set [7], > 500 µM; in data set [9] it was > 500 µM. In the data set “physchem”, this molecule displayed a chromatographic logP of 3.7.

As a reminder, the IC50 is the concentration at which inhibition is half-maximal. Lower therefore signals greater potency in that assay. Take `O=C(/C=C/C=C/c1ccccc1)c1cccc(O)c1` [Compound 3, (2E,4E)-1-(3-hydroxyphenyl)-5-phenylpenta-2,4-dien-1-one]: the pIC50 is 4.01 in [1] and 4.01 to 4.33 in [5]. Also, the MIC was 88.8 µM (≈ 22.2 µg/mL) in [2] (M. tuberculosis H37Rv, REMA, 7 days, lowest concentration giving 90% inhibition of growth); 77.9 µM (≈ 19.5 µg/mL) in [3] (read-out: Ss MIC, Streptococcus sanguinis, broth microdilution, 24 h, tested 3.9 to 500 µM); 77.9 µM (≈ 19.5 µg/mL) in data set [4] (read-out: Sm MIC, Streptococcus mutans, broth microdilution, 24 h, tested 3.9 to 500 µM); 77.9 µM (≈ 19.5 µg/mL) in data set [6] (read-out: Sa MIC, Staphylococcus aureus, broth microdilution, 24 h, tested 3.9 to 500 µM); > 500 µM in [7]; > 500 µM in data set [9]. In addition, the chromatographic logP in data set [10] is 2.7. The MBC is 156 µM (≈ 39 µg/mL) in [3]; 156 µM (≈ 39 µg/mL) in data set [4]; 77.9 to 312 µM (≈ 19.5 to 78.1 µg/mL) in data set [6] (setting [12]); 156 µM (≈ 39 µg/mL) in data set [6] (ATCC14458, read-out: Sa MBC). This molecule yielded an IC50 at 24 h in data set [11] of 46.3 µM. The “percentages of DPPH scavenging ability” value in [8] is “below 8%”.

On to `O=C/C=C/c1ccccc1` [Compound 1, Cinnamaldehyde, reference compound], for which the MIC was > 200 µM in [2]; > 500 µM in [3] (read-out: Ss MIC); > 500 µM in data set [4] (read-out: Sm MIC); > 500 µM in [6] (read-out: Sa MIC); > 500 µM in data set [7]; > 500 µM in data set [9]. Moreover, the “Ss MIC” value in data set [3] (setting [13]) is >500 µM. The “MIC against S. aureus strains” value is 250 µg/mL in the data set on S. aureus strains and 1891 µM in the data set with S. aureus strains (converted value in brackets). Moreover, the “Sm MIC” value in data set [4] (setting [13]) was >500 µM. Besides, the results for the “MIC against E. coli” value in the data set on E. coli and in the data set on E. coli (converted value in brackets) were 1000 µg/mL and 7566 µM, respectively. Besides, the “Sa MIC” value in [6] (setting [13]) is >500 µM. The “MIC against M. tuberculosis” value in the data set with M. tuberculosis is reported as 3.12 µg/mL; in the data set with M. tuberculosis (converted value in brackets) it was 23 µM. For the same molecule, the “Pa MIC” value in data set [7] (broth microdilution, 24 h) is on record as >500 µM. In data set [9] (broth microdilution, 24 h), the “Ec MIC” value is >500 µM.

`COc1cccc2c1C(=O)c1c(O)c3c(c(O)c1C2=O)C[C@@](O)(C(=O)CO)C[C@@H]3O[C@H]1C[C@H](N)[C@H](O)[C@H](C)O1` [doxorubicin, reference compound]: in data set [1], the pIC50 is 5.74. Moreover, the IC50 at 24 h in [11] stood at 0.7 µM.

Take `O=C(/C=C/C=C/c1ccccc1)c1ccc(Br)cc1` [Compound 12, (2E,4E)-1-(4-bromophenyl)-5-phenylpenta-2,4-dien-1-one]: the MIC is > 200 µM in data set [2]; > 500 µM in data set [3] (read-out: Ss MIC); > 500 µM in data set [4] (read-out: Sm MIC); > 500 µM in [6] (read-out: Sa MIC); > 500 µM in data set [7]; > 500 µM in data set [9]. Also, in the data set “physchem”, the chromatographic logP was 3.8.

The values are drawn from article PMC6151560, “Antibacterial and Antitubercular Activities of Cinnamylideneacetophenones” (Molecules : A Journal of Synthetic Chemistry and Natural …, 2017).
